This is an account of results in article PMC10303920, “Competition between skin antimicrobial peptides and commensal bacteria in type 2 inflammation enables survival of S. aureus” (Cell reports, 2023).

One experiment relates to ShA9-WT and ShA9-ΔLanti. The experiment is described as follows: Growth inhibition of ShA9-WT and ShA9-ΔLanti by human and murine AMPs (OD600). Format: cell-based, Staphylococcus hominis. Conditions: 90% RPMI/10% TSB, 30°C, 24 h, mean of duplicate technical replicates, Figure 4E. The procedure:
Staphylococcus strains collected from normal skin from healthy subjects or lesional skin from AD patients were cultured in TSB overnight. Bacteria were washed with PBS and resuspended to 90% RPMI media and 10% TSB. Bacteria (1 × 10^5 CFU/mL) were incu bated with or without human AMPs (LL-37, hBD-2, hBD-3) or mouse cathelin-related AMP (CRAMP) in 90% RPMI media and 10% TSB (100 μL) in each well of a 96-well plate at 30°C for 24 h. Bacterial growth was assessed by measuring OD600. Minimal inhibitory concentration was defined as the lowest concentration which prevent visible bacterial growth (<5% of OD600 value of the con trol well).

Experiment [1] relates to CoNS with antimicrobial activity within the microbial community of human skin swabs. As to the kind of experiment: Effect of low dose LL-37 on mixed bacterial communities from healthy human forearm skin in vitro. Format: cell-based, coagulase-negative Staphylococcus. Conditions: skin swabs from forearms of 5 healthy subjects, media with a low dose of LL-37, 4 h; Figure 4H. As to the method:
Finally, the capacity of AMPs to shape the composition of the skin CoNS community was evaluated by examining the effects of LL-37 on survival of mixed communities of bacteria obtained from human skin (Figure 4G). Skin swab samples were obtained from the forearms of 5 healthy subjects (Table S4), and these mixed bacterial samples were incubated in media without or with a low dose of LL-37 for 4 h.
Individual isolated colonies of CoNS from human skin were grown on mannitol-salt agar with egg yolk (pink color without egg yolk reaction), randomly picked and transferred to individual wells containing TSB (400μL) in a 96-well cluster tube. Each plate also contained wells with a non-antimicrobial strain of S. epidermidis (S. epidermidis 1457) as a negative control, a potent antimicrobial strain of Staphylococcus hominis (A9 strain) as positive control, and blank wells without bacteria. CoNS were cultured at 37°C overnight with shaking. Growth was evaluated by OD600. Bacteria were removed by centrifugation followed by sterile filtration with a 0.22μm membrane. Sterile conditioned media were mixed with fresh TSB at 1:1. The antimicrobial activity released from each CoNS clone was evaluated by culturing 1 × 10^4 CFU of S. aureus (ATCC35556) in 200μL of diluted conditioned media at 30°C for 24 h. […] To determine frequency of antimicrobial CoNS, up to 48 CoNS vvvcolonies were analyzed.

The next experiment relates to ShA9-WT. The experiment is described as follows: Transmission electron microscopy of ShA9-WT. Conditions: LL-37 (2 μM), 30°C, 30 min; Figure 5B. The format is cell-based, Staphylococcus hominis.

On to LL-37, for which the “Sensitivity of ShA9-WT to the AMP compared with ShA9-ΔLanti (growth inhibition)” value in the experiment with ShA9-WT and ShA9-ΔLanti is given as “more sensitive”. For the same substance, the “Relative proportion of CoNS with antimicrobial activity in mixed bacterial samples” value in experiment [1] is “decreased”. For the same substance, the “Electron microscopy findings in ShA9-WT after exposure” value in the experiment on ShA9-WT is “disruption of cytoplasmic membrane integrity and development of a mesosome-like structure within the cytosol”.
